Experiments:
isolated rat uterus = assay: Uterotonic potency on isolated rat uterus with oxytocin as standard; assay type: cell-based; details: rat in vitro
Protocol: The known compounds 2-O-methyltyrosine-oxytocin and 2-O-ethyltyrosine-oxytocin and a representative compound according to the invention, viz. 1-deamino-(2-O-ethyltyrosine)-oxytocin, was examined with regard to uterotonic potency on isolated rat uterus with use of oxytocin as standard. The antagonistic properties of the compounds were also evaluated with the aid of said preparation, but also in vivo with use of oxytocin as agonist. Moreover, the inhibition of oxytocin effect on isolated human myometrium was examined.
Sprague Dawley rats (body weight approximately 250 g) in natural estrous were selected by vaginal smears. […] Contractions were recorded isometrically at a resting tension of 1.5 g using Grass force transducers (Ft. 03). Antagonistic potency of the analogues was calculated as pA2 values (Rudinger, J. & Krejci, I. Experientia 18, (1962), 585-588). pA2 is a measure of the inhibitory property of the peptide and was defined by Schild (Schild, H. O., British Journal of Pharmacology, 2, (1947), 189-206) as the negative logarithm of the molar concentration of an antagonist which reduces the effect of a dose of agonist to that of half the dose.

[1] = tested on: rat uterus preparations stimulated with oxytocin; assay: Antagonistic activity (pA2) on rat uterus preparations in vitro stimulated with oxytocin; assay type: cell-based; details: oxytocin as agonist
Protocol: Sprague Dawley rats (body weight approximately 250 g) in natural estrous were selected by vaginal smears. An approximately 20 mm long segment was cut from the middle of a uterine horn and mounted in an organ bath containing 10 ml of a modified Locke's solution of the following composition (mM:NaCl 153, KCl 5.63, CaCl2 0.541, NaHCO3 5.95 and glucose 2.78). The solution was gassed with 5% CO2 in oxygen at 30° C. The uterine contractions were allowed to stabilize for 30 minutes. Contractions were recorded isometrically at a resting tension of 1.5 g using Grass force transducers (Ft. 03). Antagonistic potency of the analogues was calculated as pA2 values (Rudinger, J. & Krejci, I. Experientia 18, (1962), 585-588). pA2 is a measure of the inhibitory property of the peptide and was defined by Schild (Schild, H. O., British Journal of Pharmacology, 2, (1947), 189-206) as the negative logarithm of the molar concentration of an antagonist which reduces the effect of a dose of agonist to that of half the dose.

[2] = tested on: isolated human myometrium (pregnant), oxytocin induced contractions; assay: Inhibition of oxytocin induced contractions of isolated uterine tissue from pregnant women; assay type: cell-based; details: in vitro
Protocol: From 17 patients undergoing caesarean section (week 37-40) a transverse segment of uterine tissue was excised from the isthmic part of the uterus. Tissue pieces were also excised from the ventral side of the uterus of 21 non-pregnant women in fertile age undergoing hysterectomy. The tissue pieces were immediately placed in Krebs-Ringer solution (mM: NaCl 118, KCl 4.6, CaCl2 2.5, MgSO4 1.15, NaHCO3 24.9, KH2 PO4 1.15 and glucose 5.5) at 0° C. and used within two hours after the operation. Segments pieces 25×3×3 mm large were mounted in an organ bath containing 10 ml Krebs-Ringer solution at 37° C. and gassed with 5% CO2 in oxygen. After an adaptation period of 30 minutes contractions were isometrically recorded at a resting tension of 1.25 g. In experiments involving pregnant women use was made of oxytocin (0.013-1.3 μg/ml) as an agonist. Lysinevasopressin (0.07-1.3 μg/ml) was used as an agonist where non-pregnant tissue was tested. A suitable dose of agonist was selected, which gave an effect corresponding to approximately 40% of the maximum effect. The antagonist was used in a concentration of 0.33-1.32 μg/ml. […] The inhibitory effect of the antagonist was measured by planimetry, for 15 minutes after the addition of the peptide, of the total surface of the curve recorded. Inhibition was expressed as a percentage of the effect obtained with the agonist alone.

[3] = tested on: uterine contractions caused by infusion of oxytocin; assay: Rat in vivo uterine contractions under oxytocin infusion; details: for complete block of the uterine contraction pattern (oxytocin initiated and spontaneous): dose of 2 μg; for inhibition of the increase of strength of uterine contractions caused by oxytocin infusion: oxytocin 0.05 μg/min/100 g body weight
Protocol: Sprague Dawley rats (250 g) in natural estrous were anaesthetized with Inactin (0.5 mg/100 g body weight i.p.). Myometrial activity was recorded by means of a catheter fixed in the uterine cavity and filled with modified Locke's solution. The catheter was connected to a Statham P23d transducer and contractions were recorded on a Grass polygraph (model 7D). Oxytocin was infused intravenously (0.05 μg/min/100 g body weight). When a regular contraction pattern had been obtained the antagonist (0.8-8.0 μg/100 g body weight) was administered intravenously in a volume of 0.2 ml. The recorded curve was integrated over 10 minute intervals immediately before and after injection of the antagonist.

[4] = tested on: oxytocin induced uterine contractions; details: literature, studies on rats; cited from earlier work
[5] = Blood pressure after intravenous dose; assay type: in vivo; details: 30 μg intravenously
[6] = tested on: spontaneous uterine function; details: Swedish patent 7713/70; cited from earlier work

Compound	uterotonic potency (isolated rat uterus)	pA2 (average ± average error) [1]	inhibition of oxytocin induced contractions [2]	complete block of the uterine contraction pattern (oxytocin initiated and spontaneous) [3]	inhibition of the increase of strength of uterine contractions caused by oxytocin infusion [3]	effect on oxytocin induced uterine contractions [4]	effect on the blood pressure [5]	effect on the spontaneous uterine function [6]
2-O-ethyltyrosine-oxytocin	1-2 IU/mg	7.13 ± 0.09	a significant inhibition was obtained, which was however considerably lower than with use of the compound according to the invention	lack this ability	dose dependent reversible inhibition	antagonistic effect	–	–
2-O-methyltyrosine-oxytocin	1-2 IU/mg	6.68 ± 0.12	–	lack this ability	dose dependent reversible inhibition	antagonistic effect	–	–
CCOc1ccc(C[C@@H]2NC(=O)CCSSC[C@@H](C(=O)N3CCC[C@H]3C(=O)N[C@@H](CC(C)C)C(=O)NCC(N)=O)NC(=O)[C@H](CC(N)=O)NC(=O)[C@H](CCC(N)=O)NC(=O)[C@H]([C@@H](C)CC)NC2=O)cc1 [1-deamino-2-O-ethyltyrosine-oxytocin]	–	7.19 ± 0.10	–	–	–	–	no effect at all on the blood pressure	–
N^α -acetyl-2-O-methyltyrosine-oxytocin	–	–	–	–	–	antagonistic effect	–	no effect on the spontaneous uterine function
[1-deaminopenicillamine,2-O-methyltyrosine]oxytocin	–	–	–	–	–	antagonistic effect	–	–

Reference: patent publication US4402942A, “Oxytocin derivatives” (Ferring AB, priority 1980, dated 1983)
